Reference: PubChem BioAssay AID330 (DTP/NCI, 2004)
“And” between values parts separate entries of the source, which are not always exact repeats. Identical values can stand only once. Inconclusive results and toxic doses are left out.

Tested on: P388 leukemia ip, CD2F1 mice, survival T/C
Test: NCI In Vivo Anticancer Drug Screen. Data for tumor model P388 Leukemia (intraperitoneal) in CD2F1 (CDF1) mice
Details: endpoint: median survival time, higher = longer survival
In short: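 Mice carrying the transplanted tumor received test compound or vehicle. Survival was recorded in each group, and the value is the treated-group measurement divided by that of the vehicle-treated control group.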

[1] = dose: 50.0 mg/kg/injection, schedule: Q01DX005 (ip), vehicle: saline
[2] = dose: 50.0 mg/kg/injection, schedule: Q01DX005 (ip), vehicle: saline with Tween-80
[3] = dose: 25.0 mg/kg/injection, schedule: Q01DX009 (ip), vehicle: Klucel (hydroxypropylcellulose) (HPC)
[4] = dose: 100.0 mg/kg/injection, schedule: Q01DX009 (ip), vehicle: saline with Tween-80
[5] = dose: 50.0 mg/kg/injection, schedule: Q01DX009 (ip), vehicle: saline
[6] = dose: 100.0 mg/kg/injection, schedule: Q01DX009 (ip), vehicle: saline
[7] = dose: 60.0 mg/kg/injection, schedule: Q01DX005 (ip), vehicle: saline with Tween-80
[8] = dose: 120.0 mg/kg/injection, schedule: Q01DX005 (ip), vehicle: saline with Tween-80
[9] = dose: 240.0 mg/kg/injection, schedule: Q01DX005 (ip), vehicle: saline with Tween-80

OC1Cc2ccccc2CC1NC1CCCCC1 (stereo unspecified)
T/C [1]: 108 % of control | T/C (dose: 100.0 mg/kg/injection, schedule: Q01DX005 (ip), vehicle: saline): 98 % of control

CN(C)c1ccc(/C=C2/SC(=S)NC2=O)cc1
T/C (dose: 25.0 mg/kg/injection, schedule: Q01DX005 (ip), vehicle: saline with Tween-80): 93 % of control | T/C [2]: 90 % of control | T/C (dose: 100.0 mg/kg/injection, schedule: Q01DX005 (ip), vehicle: saline with Tween-80): 87 % of control

O=C1OC(c2ccc([N+](=O)[O-])cc2)=N/C1=C\c1ccc(Cl)cc1
T/C (dose: 3.13 mg/kg/injection, schedule: Q01DX009 (ip), vehicle: Klucel (hydroxypropylcellulose) (HPC)): 115 % of control | T/C (dose: 6.25 mg/kg/injection, schedule: Q01DX009 (ip), vehicle: Klucel (hydroxypropylcellulose) (HPC)): 115 % of control | T/C (dose: 12.5 mg/kg/injection, schedule: Q01DX009 (ip), vehicle: Klucel (hydroxypropylcellulose) (HPC)): 105 % of control and 88 % of control | T/C [3]: 88 % of control

c1ccc2c3c(ccc2c1)Oc1ccc2ccccc2c1C3
T/C (dose: 100.0 mg/kg/injection, schedule: Q01DX001 (ip), vehicle: Klucel (hydroxypropylcellulose) (HPC)): 102 % of control | T/C (dose: 200.0 mg/kg/injection, schedule: Q01DX001 (ip), vehicle: Klucel (hydroxypropylcellulose) (HPC)): 97 % of control | T/C (dose: 400.0 mg/kg/injection, schedule: Q01DX001 (ip), vehicle: Klucel (hydroxypropylcellulose) (HPC)): 100 % of control

Cc1ccc(NS(=O)(=O)c2ccc(Cl)cc2)cc1Cl
T/C [4]: 104 % of control | T/C (dose: 200.0 mg/kg/injection, schedule: Q01DX009 (ip), vehicle: saline with Tween-80): 98 % of control | T/C (dose: 400.0 mg/kg/injection, schedule: Q01DX009 (ip), vehicle: saline with Tween-80): 100 % of control

O=C(Nc1cccc(Cl)c1Cl)OCCCc1ccncc1
T/C (dose: 50.0 mg/kg/injection, schedule: Q01DX009 (ip), vehicle: saline with Tween-80): 100 % of control | T/C [4]: 100 % of control

CN1[C@@H]2CC[C@H]1CC(O)(c1ccccc1)C2 (stereo partly specified)
T/C (dose: 12.5 mg/kg/injection, schedule: Q01DX005 (ip), vehicle: saline): 94 % of control | T/C (dose: 25.0 mg/kg/injection, schedule: Q01DX005 (ip), vehicle: saline): 96 % of control | T/C [2]: 99 % of control | T/C [1]: 92 % of control

CN(C)c1ccc(C2OC2C(=O)n2ccc(=O)n(C(=O)C3OC3c3ccc(N(C)C)cc3)c2=O)cc1 (stereo unspecified)
T/C (dose: 100.0 mg/kg/injection, schedule: Q04DX002 (ip), vehicle: saline): 101 % of control | T/C (dose: 200.0 mg/kg/injection, schedule: Q04DX002 (ip), vehicle: saline): 100 % of control | T/C (dose: 400.0 mg/kg/injection, schedule: Q04DX002 (ip), vehicle: saline): 97 % of control

O=C(O)c1cc(C(=O)O)cc(N2C(=O)c3ccccc3C2=O)c1
T/C [5]: 100 % of control | T/C [6]: 87 % of control | T/C (dose: 200.0 mg/kg/injection, schedule: Q01DX009 (ip), vehicle: saline): 89 % of control

CCCCCC(CN(C)C)C(O)CCc1ccc(Cl)c(Cl)c1 (stereo unspecified)
T/C [3]: 106 % of control | T/C (dose: 50.0 mg/kg/injection, schedule: Q01DX009 (ip), vehicle: Klucel (hydroxypropylcellulose) (HPC)): 98 % of control | T/C (dose: 100.0 mg/kg/injection, schedule: Q01DX009 (ip), vehicle: Klucel (hydroxypropylcellulose) (HPC)): 104 % of control

CCOC(=O)c1csc(=S)[nH]1
T/C [7]: 107 % of control | T/C [8]: 101 % of control | T/C [9]: 100 % of control

Nc1ncnc2c1nc(Br)n2C1OC2COP(=O)(O)OC2C1O (stereo unspecified)
T/C (dose: 50.0 mg/kg/injection, schedule: Q01DX009 (ip), vehicle: suspension in saline): 100 % of control | T/C (dose: 100.0 mg/kg/injection, schedule: Q01DX009 (ip), vehicle: suspension in saline): 96 % of control | T/C (dose: 200.0 mg/kg/injection, schedule: Q01DX009 (ip), vehicle: suspension in saline): 100 % of control

CCN(CC)CCOCc1cccc2c(=O)cc(-c3ccccc3)oc12
T/C [5]: 105 % of control | T/C [6]: 101 % of control

CCc1cccc(C)c1NC(=O)CCC(=O)OC
T/C [7]: 102 % of control | T/C [8]: 97 % of control | T/C [9]: 96 % of control
